Source: US10363239B2, “Method for inhibiting growth of cancer cells” (Pain Therapeutics, Inc., priority 2013, dated 2019)

Tests used:
[1] = test system: pS2152FLNA, FLNA-associated PTEN and PP2A in primary lung fibroblast cells; experiment: pS2152FLNA and FLNA-associated PTEN and PP2A in anti-FLNA immunoprecipitate (Western blotting); type: cell-based, human; conditions: 0.1-5 nM; 4 days
Procedure: The effect of contact with Compound C0105 on the levels of pS^2152FLNA and FLNA-associated phosphatases, PTEN and PP2A subclasses was determined in primary lung fibroblast cells. Cells were treated with vehicle and 0.1-5 nM Compound C0105 for 4 days. Cells were washed, solubilized and the resultant cell lysate was immunoprecipitated with anti-FLNA. The levels of pS^2152FLNA and FLNA-associated phosphatases, PTEN and PP2A subclasses in the anti-FLNA immunoprecipitate were determined by Western blotting. The density of protein bands was measured by densitometric scanning. […] N=4. **p<0.05, *p<0.01 compared to vehicle (open bars). […]
The cell lysates were diluted 5-fold with immunoprecipitation buffer and immunoprecipitated with anti-FLNA, -Akt, -mTOR and -ERK2 as described previously [Talbot et al., J Clin Inv 122(4):1-23 (2012); Wang et al., J Neurosci 32(29):9773-9784 (2012)]. The levels of FLNA linkages, activated phosphorylated Akt (pS^473 and pT^308), phosphorylated mTOR (pS^2448) and phosphorylated ERK2 (pY/pT) were determined in anti-FLNA, -Akt, -mTOR and -ERK2 immunoprecipitates by Western blotting with appropriate antibodies directed against PTEN, PP2A, K-RAS, ras-GAP (FLNA linkages), pS^473Akt, pT^308Akt, pS^2448mTOR and pY/pT ERK2 (activation of Akt, mTOR and ERK2).

MiaPaCa2 cells = experiment: Cell proliferation by cell-cycling markers Ki67 and PCNA (Western blots); type: cell-based, human; conditions: 0.1-5 nM; 4 days
Procedure: The effect of contact with Compound C0105 on cell proliferation was determined by the levels of cell-cycling markers Ki67 and PCNA using Western blots. Cells treated with vehicle and 0.1-5 nM C0105 for 4 days were collected, washed and solubilized (lysed). The resultant cell lysates were size-fractionated on SDS-PAGE and Western blotting to determine the levels of Ki67, PCNA and actin (loading control). The protein bands were quantified using densitometric scanning. […] N=4. *p<0.01 compared to vehicle (open bars).
(§1) To study the effect of Compound C0105 on PI3K activity, the cancer and primary normal cells were cultured to approximately 60-70% confluency, serum deprived for 4 hours, briefly washed with PBS and treated with vehicle or 0.1, 0.5, 1 or 5 nM Compound C0105 for 24 hours with in 0.1% FBS-containing culture medium. […] The cell pellets were sonicated in ice-cold immunoprecipitation buffer and protein concentrations measured by the Bradford method. […]
Immunoreactivity was visualized by reaction in ECL Plus chemiluminescent reagent for exactly 5 minutes, followed by immediate exposure of the blot to X-ray film (Z & Z Medical). Bands at the relevant molecular masses of Ki67 and PCNA were quantified by densitometric scan. Membranes were stripped, washed 5× in 0.1% PBST (2 minutes each) and the actin content analyzed by immunoblotting using monoclonal anti-actin to illustrate even loading.

[2] = test system: primary human mammary epithelial cells (HMECs); experiment: as above; type: cell-based; conditions: 0.1-5 nM; 4 days
Procedure: (§2) The effect of contact with Compound C0105 on cell proliferation was determined by the levels of cell-cycling markers: Ki67 and PCNA using Western blots in HTB-22 and control human mammary epithelial cells (HMECs). Cells treated with vehicle and 0.1-5 nM Compound C0105 for 4 days were collected, washed and solubilized. The resultant cell lysates were size-fractionated on SDS-PAGE and Western blotting to determine the levels of Ki67, PCNA and actin (loading control). The protein bands were quantified using densitometric scanning.
(§3) The effect of C0105 on cell proliferation was determined by the levels of cell-cycling markers Ki67 and PCNA using Western blots in HTB-22 and control HMECs. Cells contacted with vehicle and 0.1-5 nM Compound C0105 for 4 days were collected, washed and solubilized. […] The protein bands were quantified using densitometric scanning. […]
as §1

[3] = test system: MiaPaCa2 pancreatic cancer cell implants; experiment: Xenograft tumor volume study
[4] = test system: breast cancer HTB-22 cells; experiment: Cell proliferation by cell-cycling markers Ki67 and PCNA (Western blots); type: cell-based, human; conditions: 0.1-5 nM; 4 days
Procedure: as §2, §3, §1

CN1CCC2(CC1)NCC(=O)N2Cc1ccccc1 [Compound C0105]
FLNA-associated PTEN and PP2A levels [1]: does not affect
pS2152FLNA level [1]: does not affect
Cell proliferation (Ki67 and PCNA levels) (MiaPaCa2 cells): reduces cell proliferation
Cell proliferation (Ki67 and PCNA levels) [2]: had no effect
Tumor volume ([3]; 1 mg/kg twice daily orally for 20 days): arrested growth
Tumor volume ([3]; 10 mg/kg twice daily orally for 20 days): shrank tumors
Vasculature of tumor masses ([3]; 1 or 10 mg/kg twice daily orally): visibly reduced the vasculature of tumor masses
Cell proliferation (Ki67 and PCNA levels) [4]: reduces cell proliferation
